Reference: patent US20260297542A1, “HERBICIDE RESISTANT PLANTS” (SYNGENTA CROP PROTECTION AG, priority 2023, published 2026)
Changes are numbered by the printed parent chain.

Experiments:
Assay in all cases: E. coli hemG growth inhibition by herbicide, AtPPO1 variant
Type in all cases: cell-based
Settings in all cases: read-out: percentage growth inhibition
AtPPO1 F207Y = target: T1, AtPPO1 F207Y (Arabidopsis thaliana, UniProt P55826, F207Y)
T1 construct: expressed in transfected cells; host or cells: E. coli BL21(DE3) hemG (hemG replaced by CmR), pET24a plasmid
T1 sequence (P55826 35-537 F207Y): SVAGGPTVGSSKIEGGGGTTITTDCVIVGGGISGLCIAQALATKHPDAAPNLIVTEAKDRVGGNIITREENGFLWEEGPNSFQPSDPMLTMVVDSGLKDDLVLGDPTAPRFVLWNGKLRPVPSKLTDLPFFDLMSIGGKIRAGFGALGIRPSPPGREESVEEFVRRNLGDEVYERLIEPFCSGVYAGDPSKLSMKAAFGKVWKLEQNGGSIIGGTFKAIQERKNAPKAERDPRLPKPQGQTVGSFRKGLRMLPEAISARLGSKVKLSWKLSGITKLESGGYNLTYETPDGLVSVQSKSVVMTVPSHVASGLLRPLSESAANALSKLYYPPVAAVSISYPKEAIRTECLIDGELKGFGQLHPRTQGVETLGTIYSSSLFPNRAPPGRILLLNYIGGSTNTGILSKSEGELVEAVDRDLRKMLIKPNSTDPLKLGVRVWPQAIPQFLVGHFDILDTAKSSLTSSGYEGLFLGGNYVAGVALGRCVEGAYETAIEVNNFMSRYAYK
How it was run: (§1)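 Read-out is OD600 at 24 h post inoculation, converted to percent growth inhibition relative to DMSO. The hemG-deleted BL21(DE3) host relied on the plasmid-borne AtPPO1 variant, induced with 0.1 mM IPTG, with 6.25 ppm herbicide 0 or E or 0.78 ppm herbicide B present at 37° C.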

AtPPO1 Y361C = target: T2, AtPPO1 Y361C (Arabidopsis thaliana, UniProt P55826, Y361C)
T2 construct: expressed in transfected cells; host or cells: E. coli BL21(DE3) hemG, pET24a plasmid
T2 sequence (P55826 35-537 Y361C): T1 sequence (P55826 35-537 F207Y) with Y173F, Y327C
How it was run: as §1

AtPPO1 V511N = target: T3, AtPPO1 V511N (Arabidopsis thaliana, UniProt P55826, V511N)
T3 construct: expressed in transfected cells; host or cells: E. coli BL21(DE3) hemG, pET24a plasmid
T3 sequence (P55826 35-537 V511N): T1 sequence (P55826 35-537 F207Y) with Y173F, V477N
How it was run: as §1

AtPPO1 E111F = target: T4, AtPPO1 E111F (Arabidopsis thaliana, UniProt P55826, E111F)
T4 construct: expressed in transfected cells; host or cells: E. coli BL21(DE3) hemG (hemG replaced by CmR), pET24a plasmid
T4 sequence (P55826 35-537 E111F): T1 sequence (P55826 35-537 F207Y) with E77F, Y173F
How it was run: as §1

`CC(C)N(C)S(=O)(=O)NC(=O)c1cc(-n2c(=O)cc(C(F)(F)F)n(C)c2=O)c(F)cc1Cl` [Herbicide E, saflufenacil] was tested. Which inhibition at 6.25 ppm (AtPPO1 F207Y) did it give?
Its inhibition at 6.25 ppm is 66%.

What about the inhibition at 6.25 ppm (AtPPO1 Y361C) of the same molecule?
The inhibition at 6.25 ppm was 35%.

What about the inhibition at 6.25 ppm (AtPPO1 V511N) of the same molecule?
The inhibition at 6.25 ppm was 48%.

And the inhibition at 6.25 ppm (AtPPO1 E111F)?
Its inhibition at 6.25 ppm is 66%.

How did the inhibition at 0.78 ppm (AtPPO1 F207Y) turn out when `C#CCN1C(=O)C(F)(F)Oc2cc(F)c(-n3c(=O)n(C)c(=S)n(C)c3=O)cc21` [Herbicide B, trifludimoxazin] was run?
The inhibition at 0.78 ppm was 29%.

And the inhibition at 0.78 ppm (AtPPO1 Y361C)?
The inhibition at 0.78 ppm was 36%.

What about the inhibition at 0.78 ppm (AtPPO1 V511N) of the same molecule?
The inhibition at 0.78 ppm was 20%.

What about the inhibition at 0.78 ppm (AtPPO1 E111F) of the same molecule?
The inhibition at 0.78 ppm was 27%.

How did the inhibition at 6.25 ppm (AtPPO1 F207Y) turn out when `CCOC(=O)[C@]1(C)CC(c2cc(-n3c(=O)n(C)c(=S)n(C)c3=O)c(F)cc2Cl)=NO1` [Herbicide D, ethyl (5S)-3-[2-chloro-5-(3,5-dimethyl-2,6-dioxo-4-thioxo-1,3,5-triazinan-1-yl)-4-fluoro-phenyl]-5-methyl-4H-isoxazole-5-carboxylate] was run?
Its inhibition at 6.25 ppm is 19%.

And the inhibition at 6.25 ppm (AtPPO1 Y361C)?
The inhibition at 6.25 ppm was 15%.

And the inhibition at 6.25 ppm (AtPPO1 V511N)?
The inhibition at 6.25 ppm was 22%.

What about the inhibition at 6.25 ppm (AtPPO1 E111F) of the same molecule?
The inhibition at 6.25 ppm was 29%.
